From ChEMBL document CHEMBL1201862, “PubChem BioAssay data set” (2004)
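These data come from cells grown in 96-well plates and exposed to compound for 48 hours at five concentrations. GI50 = concentration required for 50% inhibition of growth.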 Calls of active or inactive are those of the source. Rule as the data show it: active = GI50 up to about 1.1 µM and inactive = higher.

Columns and labels:
Assay in all cases: growth of human tumour cells (NCI), 48 h
CAKI-1 = tested on: CAKI-1
HCC 2998 = tested on: HCC 2998
HT-29 = tested on: HT-29
IGROV-1 = tested on: IGROV-1
M14 = tested on: M14
MDA-MB-231 = tested on: MDA-MB-231
MDA-N = tested on: MDA-N
NCI-H460 = tested on: NCI-H460
NCI/ADR-RES = tested on: NCI/ADR-RES
OVCAR-5 = tested on: OVCAR-5
OVCAR-8 = tested on: OVCAR-8
RPMI-8226 = tested on: RPMI-8226
SF-268 = tested on: SF-268
SK-MEL-28 = tested on: SK-MEL-28
SK-OV-3 = tested on: SK-OV-3
SN12C = tested on: SN12C
SR = tested on: SR
TK-10 = tested on: TK-10
UACC-257 = tested on: UACC-257
UO-31 = tested on: UO-31

Measured: GI50

CCO/C=N/C1=C(C#N)C(c2ccc(Cl)cc2)c2c(-c3ccccc3)nn(-c3ccccc3)c2O1 (stereo not given)
inactive: CAKI-1 15.7 µM | HCC 2998 7.16 µM | HT-29 7.53 µM | IGROV-1 8.93 µM | M14 4.58 µM | MDA-MB-231 21.6 µM | MDA-N 14.7 µM | NCI-H460 7.69 µM | NCI/ADR-RES 9.86 µM | OVCAR-5 23.7 µM | OVCAR-8 14 µM | RPMI-8226 6.53 µM | SF-268 7.87 µM | SK-MEL-28 11.7 µM | SK-OV-3 14.3 µM | SN12C 12.2 µM | SR 5.5 µM | TK-10 7.19 µM | UACC-257 11.8 µM | UO-31 11.6 µM

c1ccc2c(c1)CCN2CCc1c[nH]c2ccccc12
inactive: CAKI-1 > 10 µM | HCC 2998 > 10 µM | HT-29 > 10 µM | IGROV-1 > 10 µM | M14 > 10 µM | MDA-MB-231 > 10 µM | MDA-N > 10 µM | NCI-H460 > 10 µM | NCI/ADR-RES > 10 µM | OVCAR-5 > 10 µM | OVCAR-8 > 10 µM | RPMI-8226 > 10 µM | SF-268 > 10 µM | SK-MEL-28 > 10 µM | SK-OV-3 > 10 µM | SN12C > 10 µM | SR > 10 µM | TK-10 > 10 µM | UACC-257 > 10 µM | UO-31 > 10 µM

COc1ccc(CN(CCc2c[nH]c3ccccc23)Cc2ccc(OC)cc2)cc1
inactive: CAKI-1 3.94 µM | HCC 2998 3.34 µM | HT-29 1.29 µM | IGROV-1 1.8 µM | M14 2.8 µM | MDA-MB-231 8.65 µM | MDA-N 1.92 µM | NCI-H460 2.15 µM | NCI/ADR-RES 3.2 µM | OVCAR-5 3.64 µM | OVCAR-8 3.95 µM | RPMI-8226 3.82 µM | SF-268 4.39 µM | SK-MEL-28 3.86 µM | SK-OV-3 5.46 µM | SR 7.57 µM | TK-10 1.29 µM | UACC-257 3.8 µM | UO-31 1.47 µM
active: SN12C 0.968 µM

Cc1ccc(S(=O)(=O)N2CCC(=O)c3cc(Br)ccc32)cc1
inactive: CAKI-1 11.8 µM | HCC 2998 24 µM | HT-29 6.25 µM | IGROV-1 6.1 µM | M14 5.06 µM | MDA-MB-231 6.44 µM | MDA-N 3.01 µM | NCI-H460 19.3 µM | NCI/ADR-RES 6.56 µM | OVCAR-5 42.4 µM | OVCAR-8 14.4 µM | RPMI-8226 12.2 µM | SF-268 18.2 µM | SK-MEL-28 24.7 µM | SK-OV-3 20.5 µM | SN12C 12.9 µM | SR 3.96 µM | TK-10 10.7 µM | UACC-257 6.95 µM | UO-31 10.9 µM

CC(C)(C)[Si](C)(C)OCC1OC(n2cnc3c(=O)[nH]cnc32)CC1O (stereo not given)
inactive: CAKI-1 > 100 µM | HCC 2998 > 100 µM | HT-29 > 100 µM | IGROV-1 > 100 µM | M14 > 100 µM | MDA-MB-231 > 100 µM | MDA-N > 100 µM | NCI-H460 > 100 µM | NCI/ADR-RES > 100 µM | OVCAR-5 > 100 µM | OVCAR-8 > 100 µM | RPMI-8226 > 100 µM | SF-268 > 100 µM | SK-MEL-28 > 100 µM | SK-OV-3 > 100 µM | SN12C > 100 µM | SR > 100 µM | TK-10 > 100 µM | UACC-257 > 100 µM | UO-31 > 100 µM

O=C1Nc2ccc(S(=O)(=O)N(CCO)CCO)cc2/C1=C1/Nc2ccccc2C1=O
inactive: CAKI-1 > 100 µM | HCC 2998 > 100 µM | HT-29 > 100 µM | IGROV-1 2.5 µM | M14 > 100 µM | MDA-MB-231 40.5 µM | MDA-N > 100 µM | NCI-H460 > 100 µM | NCI/ADR-RES > 100 µM | OVCAR-5 > 100 µM | OVCAR-8 > 100 µM | RPMI-8226 > 100 µM | SF-268 > 100 µM | SK-MEL-28 > 100 µM | SK-OV-3 > 100 µM | SN12C > 100 µM | SR 1.91 µM | TK-10 > 100 µM | UACC-257 > 100 µM | UO-31 > 100 µM

CCCCCC(=O)OC[n+]1ccc(-c2c(COC(=O)NC(C)C)c(COC(=O)NC(C)C)c3n2CCC3)cc1
inactive: CAKI-1 49.5 µM | HCC 2998 > 100 µM | HT-29 > 100 µM | IGROV-1 > 100 µM | M14 > 100 µM | MDA-MB-231 > 100 µM | MDA-N > 100 µM | NCI-H460 72.3 µM | NCI/ADR-RES > 100 µM | OVCAR-5 > 100 µM | OVCAR-8 > 100 µM | RPMI-8226 > 100 µM | SF-268 > 94.6 µM | SK-MEL-28 > 100 µM | SK-OV-3 > 100 µM | SN12C > 100 µM | SR 16.9 µM | TK-10 > 100 µM | UACC-257 > 100 µM | UO-31 > 100 µM

Nc1c(Cl)c([N+](=O)[O-])cc2c1OCCCCO2
inactive: CAKI-1 56.4 µM | HCC 2998 > 100 µM | HT-29 > 100 µM | IGROV-1 40.5 µM | M14 > 100 µM | MDA-MB-231 83.4 µM | MDA-N > 100 µM | NCI-H460 > 100 µM | NCI/ADR-RES 89.5 µM | OVCAR-5 > 100 µM | OVCAR-8 > 100 µM | RPMI-8226 > 100 µM | SF-268 > 100 µM | SK-MEL-28 > 100 µM | SK-OV-3 18.3 µM | SN12C > 100 µM | SR > 100 µM | TK-10 > 100 µM | UACC-257 > 100 µM | UO-31 > 100 µM

Clc1nc(Cl)c(Cl)c(Cl)n1
inactive: CAKI-1 17.8 µM | HCC 2998 18.7 µM | HT-29 20.7 µM | IGROV-1 19.9 µM | M14 17 µM | MDA-MB-231 18 µM | MDA-N 19.1 µM | NCI-H460 21.6 µM | NCI/ADR-RES 23.4 µM | OVCAR-5 20.5 µM | OVCAR-8 26.4 µM | RPMI-8226 43.3 µM | SF-268 17.2 µM | SK-MEL-28 19.6 µM | SK-OV-3 16.6 µM | SN12C 20.6 µM | SR 5.96 µM | TK-10 20.9 µM | UACC-257 16.3 µM | UO-31 24.5 µM

COc1ccc(OC)c2c1C(=O)C(Cl)=C(Cl)C2=O
inactive: CAKI-1 2.56 µM | HCC 2998 17.3 µM | HT-29 4.18 µM | IGROV-1 15.5 µM | M14 2.47 µM | MDA-MB-231 2.74 µM | MDA-N 2.08 µM | NCI-H460 19.8 µM | NCI/ADR-RES 2.58 µM | OVCAR-5 15.7 µM | OVCAR-8 6.46 µM | RPMI-8226 3.02 µM | SF-268 13.5 µM | SK-MEL-28 3.79 µM | SK-OV-3 28.4 µM | SN12C 10.7 µM | SR 1.16 µM | TK-10 3.09 µM | UACC-257 2.19 µM | UO-31 2.44 µM

O=C(CCN1CCCCC1)N1CCc2c([nH]c3ccccc23)C1c1cccnc1 (stereo not given)
inactive: CAKI-1 > 73.6 µM | HCC 2998 28 µM | HT-29 32.4 µM | IGROV-1 > 92 µM | M14 22.9 µM | MDA-MB-231 34.1 µM | MDA-N 28.1 µM | NCI-H460 73.1 µM | NCI/ADR-RES > 100 µM | OVCAR-5 > 73.3 µM | OVCAR-8 69.3 µM | RPMI-8226 39.7 µM | SF-268 61.4 µM | SK-MEL-28 19.5 µM | SK-OV-3 > 100 µM | SN12C > 81.5 µM | SR 41.5 µM | TK-10 68.9 µM | UACC-257 17.5 µM | UO-31 38.3 µM

CCCCN1C(=O)CC2[C@@H]3CCc4cc(OC)ccc4C3CC[C@]2(C)C1=O (stereo not given in full)
inactive: CAKI-1 > 10 µM | HCC 2998 > 10 µM | HT-29 > 10 µM | IGROV-1 > 10 µM | M14 > 10 µM | MDA-MB-231 > 10 µM | MDA-N > 10 µM | NCI-H460 > 10 µM | NCI/ADR-RES > 10 µM | OVCAR-5 > 10 µM | OVCAR-8 > 10 µM | RPMI-8226 > 10 µM | SF-268 > 10 µM | SK-MEL-28 > 10 µM | SK-OV-3 > 10 µM | SN12C > 10 µM | SR 6.85 µM | TK-10 > 10 µM | UACC-257 > 10 µM | UO-31 > 10 µM

COCN1C(=O)[C@@H]2CCCN2C(=O)c2cc(Cl)ccc21
inactive: CAKI-1 > 100 µM | HCC 2998 > 100 µM | HT-29 > 100 µM | IGROV-1 > 100 µM | M14 > 100 µM | MDA-MB-231 > 100 µM | MDA-N > 100 µM | NCI-H460 > 100 µM | NCI/ADR-RES > 100 µM | OVCAR-5 > 100 µM | OVCAR-8 > 100 µM | RPMI-8226 > 100 µM | SF-268 > 100 µM | SK-MEL-28 > 100 µM | SK-OV-3 > 100 µM | SN12C > 100 µM | SR > 100 µM | TK-10 > 100 µM | UACC-257 > 100 µM | UO-31 > 100 µM

O=C1c2cc([N+](=O)[O-])sc2C(=O)c2ccsc21
inactive: CAKI-1 1.24 µM | OVCAR-5 1.69 µM | SK-OV-3 1.58 µM | UO-31 1.2 µM
active: HCC 2998 0.52 µM | HT-29 0.665 µM | IGROV-1 0.413 µM | M14 0.258 µM | MDA-MB-231 0.266 µM | MDA-N 0.191 µM | NCI-H460 0.306 µM | NCI/ADR-RES 0.824 µM | OVCAR-8 0.465 µM | RPMI-8226 0.206 µM | SF-268 0.361 µM | SK-MEL-28 0.283 µM | SN12C 0.327 µM | SR < 0.0129 µM | TK-10 0.774 µM | UACC-257 0.242 µM
